{"source": "patent EP1997826A2", "about": "“Synthetic ligands for immunoglobulins and pharmaceutical compositions containing them” (Tecnogen S.p.A., priority 2007, dated 2008)", "test_system": "RBL 2H3 cells", "assay": "assay for degranulation of the RBL 2H3 cells (release of β-hexose-aminidase induced by anti-DNP IgE and DNP-BSA antigen)", "format": "cell-based, rat", "description": "The RBL 2H3 cell line, rat basophils that express the receptor with high affinity for the immunoglobulins of class E (FcεRl), is widely used for investigating allergic reactions, because in this cell line the chemical mediators of inflammation are released as a result of allergen specific-IgE-FcεRI binding.\nRelease of the enzyme β-hexose-aminidase, which is present together with histamine in the granules of mast cells and basophils, can be used as an index of cellular degranulation (Tanaka et al., 1991, Chem. Pharm. Bull, 39, 2072-2076; McCloskey et al., 1988, Proc. Natl. Acad. Sci., USA, 85, 7260-7264).\nThe activity of the enzyme β-hexose-aminidase, released by the stimulated RBL 2H3 cells, was determined by the method described by Yamanishi et al., 1995, Jour. Biotech. Biochem., 59 (7), 1272-1275, which envisages measurement of the enzymatic activity by measuring the absorbance of the product p-nitrophenol generated by the synthetic substrate p-nitrophenyl-N-acetyl-β-D-glucosamide. 1x10^5 RBL 2H3 cells, trypsinized from plates at confluence, were resuspended in a volume of 80 µl of the culture medium (MEM + 10% inactivated fetal bovine serum) and distributed in each well of the 96-well plates (Costar). After 24 hours, 20 µl of medium containing anti-2,4-dinitrophenol monoclonal IgEs (DNP, Sigma, Cat. No. D-8406) was added to each well.\nThe microplates were incubated at 37°C for one hour and then washed three times with 100 µl of HBS buffer solution (10 mM HEPES, 135 mM NaCl, 5 mM KCI, 1 mM CaCl2, 0.5 mM MgCl2, 5.6 mM glucose, 0.1 % BSA, pH 7.4). After the washings, 100 µl of HBS containing the 2,4-dinitrophenol antigen conjugated to BSA (Sigma, Cat. No. A-6661) was added. As a control, 100 µl of HBS containing 1% Triton X-100 was added to some wells to determine the total amount of enzyme contained in the cellular granules.\nAfter further incubation at 37°C for two hours, 30 µl of cellular supernatant or of cellular lysate was transferred to a new microplate, to which 50 µl of sodium citrate buffer at pH 4.5, containing 4 mM p-nitrophenyl-N-acetyl-β-D-glucosaminide (Sigma, Cat. No. N9376), a specific substrate for the enzyme β-hexose-aminidase, had been added beforehand. After incubation for two hours at 37°C, the reaction was stopped by adding 100 µl of glycine solution 0.2 M, pH 10.7. The enzymatic activity was determined by measuring the absorbance at 405 nm with a Microplate Reader Model 3550 EIA (Bio-Rad).\nIn preliminary experiments the immunoglobulins E and the antigen were added at various concentrations in order to determine the optimum concentrations for induction of the reaction of enzymatic release. The conditions identified experimentally correspond to 0.5 µg/ml of IgE and 0.05 µg/ml of antigen DNP conjugated to BSA.\nTo verify the capacity of the peptides of formula IB and of comparative peptides for inhibiting the degranulation of the RBL 2H3 cells, the peptides were added in the assay together with the antigen at concentrations between 0.1 and 500 µg/ml."}
{"substance": "(H-L-Cys(p-MeOBzl)-L-Arg-L-Thr-L-Tyr)2-Lys-Gly-Lys-OH [ID]", "values": [{"measurement": "inhibition of degranulation, result in words compared with peptide IB", "value": "Results similar to the results obtained with peptide IB"}]}
